For assay [1], the system named is E-selectin ligand activity of murine Th1 cells. In words: Flow chamber analysis of E-selectin binding on murine Th1 cells. Format: cell-based, mouse. The text has this: CD4+ splenocytes were isolated from C57BL-6 mice by anti-murine CD4 L3T4 magnetic bead technology (Miltenyi Biotec) according to manufacturer's protocol. […] Culturing murine T helper cells in the presence of murine IL-12 and anti-murine IL-4 produces selectin binding Th1 cells by up-regulating FucTVII (69, 70) and core 2 enzyme (43–45, 71, 72), both critical for selectin ligand synthesis (i.e. decoration of PSGL-1 (67, 68)), and prevents the production of non-selectin binding Th2 cells (67–72). Th1 cells were also generated from mice deficient in α1,3 fucosyltransferase, FucTVII, and served as negative controls (33, 38, 40). Cells were harvested and re-plated at 2×10^6cells/ml on non-Ab coated plastic with murine IL-2 (20 ng/ml) in the presence or absence of murine IL-12 (10 ng/ml) and anti-murine IL-4 moAb 11B11 (10 μg/ml) for 48 h. […] Glycosylation inhibitors were added to cultures on day 6.5 for 30 hr, after first treating cells with neuraminidase (0.1 U/ml for 1 hr at 37° C.) to remove all cell surface terminal sialic acid resides and E and P-selectin ligand activity. Since selectin ligands are dependent on terminal sialic acid (α2,3 N-acetylneuraminic acid) for activity, this approach allowed for analysis of de novo synthesized selectin ligands in the presence of 0.05 mM 4-F-GlcNAc, N-glycan inhibitors, 0.23 mM swainsonine and 0.02 mM tunicamycin, and 1 mM GlcNAc (negative control).

In assay [2] the test system is HCELL/CD44 activity on human hematopoietic KG1a cells. As to the kind of experiment: Stamper-Woodruff adhesion assay, L-selectin-dependent lymphocyte adherence to KG1a cells. Format: cell-based. The note with it: for relative potency as inhibitor of HCELL activity: 4-F-GlcNAc vs swainsonine, tunicamycin vs both. The source says: To study the effects of 4-F-GlcNAc on the function of the L-selectin binding activity of CD44 (HCELL), we employed the shear-based, Stamper-Woodruff adhesion assay to examine the ability of 4-F-GlcNAc-treated KG1a cells to support L-selectin-dependent lymphocyte adherence. This assay is utilized to specifically assess the shear-dependent binding interactions between L-selectin naturally expressed on lymphocytes and HCELL expressed on KG1a cells (Dimitroff, C. J. et al. (2000) Proc. Nat. Acad. Sci., 97(25):13841–46; Sackstein, R. and Dimitroff, C. J. (2000) Blood, 96: 2765–74.). Before treating KG1a cells with 0.05, 0.1 or 0.5 mM 4-F-GlcNAc, we first pretreated KG1a cells with Vibrio cholerae neuraminidase (0.1 U/ml for 1 hr at 37° C.) to cleave all terminal α2,3 sialic acid-bearing residues and eliminate all HCELL activity. Glutaraldehyde-fixed monolayers of KG1a cells that were first treated with Vibrio cholerae neuraminidase (0.1 U/ml for 1 hr at 37° C.) then re-cultured in the presence of 4-F-GlcNAc (0.05–0.5 mM) for 30 hr at 37° C. Metabolic inhibitors swainsonine, an inhibitor of α-mannosidase II, tunicamycin, an inhibitor of N-acetylglucosamine phosphototransferase, were also utilized to compare the relative potencies of known glycosylation inhibitors. Human peripheral blood lymphocytes (5×10^6cells/ml RPMI1640 w/o NaBicarbonate/5%FBS) were overlayed onto KG1a monolayers at 80 rpm for 30 min. at 4° C., and after gently washing in PBS, lymphocytes bound to cell monolayers were fixed in 3% glutaraldehyde. Re-expression of HCELL activity or HECA-452-reactive CD44 on KG1a cells was determined after […] of 4-F-GlcNAc treatment. Bound lymphocytes were quantified at 100× magnification from a minimum of 5 fields from 2 slides, and the mean number of lymphocytes (standard error of the mean) was calculated.

The test system of assay [3] is P-selectin ligand activity of CLA+ T-lymphocytes. As to the kind of experiment: Parallel-plate flow chamber, CLA+ T-cell tethering and rolling on P-selectin chimera. Format: cell-based, human. The protocol:
(§1) To analyze the affects of 4-F-GlcNAc on the function of CLA on human T-cells, we examined the ability of 4-F-GlcNAc-treated (0.05, 0.1, 0.5 mM for 30 hrs) CLA-+ T-cells cultures to engage with immobilized E- and P-selectin chimera in the parallel-plate flow chamber. As described for flow cytometric analyses (Example 13), cells were first pretreated with neuraminidase to remove terminal sialic acid residues required for HECA-452 reactivity and for E- and P-selectin ligand activity of CLA. This approach allowed for the assessment on de novo synthesized CLA molecules.
(§2) Tethering and rolling of human T-cells on recombinant human E- and P-selectin-Ig chimera (provided by Dr. Robert Fuhlbrigge, Harvard Medical School) and human L-selectin-Ig (gift from Dr. Ray Camphausen, Wyeth/Genetics Institute, Inc., Cambridge, Mass.) were analyzed in the parallel-plate flow chamber under physiologic shear stress conditions (3). To prepare E- and P-selectin-Ig chimera spots, protein A (300 μg/15 μl 0.1M NaHCO3) was adsorbed to Ten-twenty-nine™ Petri dishes for 2 h at 37° C. Human serum albumin ([…] PBS) then added and incubated for 2 h at 37° C. to block non-specific binding sites. E-selectin-Ig (50 ng/50 μl PBS) or P-selectin-Ig (50 ng/50 μl PBS) solutions was pipetted directly over the pre-existing protein A spots for 18 h at 4° C. To prepare L-selectin-Ig spots, L-selectin-Ig (300 ng/15 μl PBS) or isotype control human IgG (300 ng/15 μl) were adsorbed directly to plastic (non-protein A-coated) for 18 h at 4° C. and blocked in 100% FBS for 2 h at 4° C.
(§3) CLA^+ T-cells or freshly isolated PBL were treated with neuraminidase and metabolic glycosylation inhibitors or with protease (bromelain) as described above, washed twice in HBSS, suspended at 2×10^6/ml in HBSS/10 mM HEPES/2 mM CaCl2 (H/H/Ca^++) and infused into the chamber over selectin chimeras. Protease treatment was performed to control for residual E-selectin activity not attributable to the expression of CLA on a protein scaffold. Cell tethering was permitted at 0.6 dynes/cm^2 for 1 min, then stepwise increments in shear stress every 15 sec were employed to a final shear stress level of 60 dynes/cm^2. The number of cells rolling/viewing field (at 100× magnification) was quantified at each level of shear stress in triplicates for a minimum of three experiments. […] Negative control experiments were performed in parallel, wherein cell binding was examined in H/H adhesion assay medium containing 5 mM EDTA as well as assaying cell binding to human IgG isotype control.
(§4) Utilizing the parallel-plate flow chamber under physiologic shear stress conditions, E-, P- and L-selectin ligand activities of human CLA^+ T-cells treated were analyzed in an identical manner as cells prepared for Western blotting and autoradiography studies.

In assay [4] the test system is E-selectin ligand activity of CLA+ T-lymphocytes. As to the kind of experiment: Parallel-plate flow chamber, CLA+ T-cell tethering and rolling on E-selectin chimera. Format: cell-based, human. The protocol: as §1, §2, §3, §4
The mark [5] stands for this setting: 30 hr after neuraminidase, 0.05 mM 4-F-GlcNAc, 0.23 mM swainsonine, 0.02 mM tunicamycin, 1 mM GlcNAc.
[6] abbreviates: at 2.0 dynes/cm^2, tunicamycin 0.02 mM, swainsonine 0.23 mM, 4-F-GlcNAc 0.05 mM, BAG 2.0 mM, p<0.01.
Where [7] appears, read: neuraminidase then 0.1 and 0.5 mM for 30 hrs.
[8] abbreviates: 30 h following neuraminidase digestion, drug control.

Read-outs that look alike come from different tables or passages of the source.

Consider `CC(=O)N[C@H]1C(OC(C)=O)O[C@H](COC(C)=O)[C@@H](F)[C@@H]1OC(C)=O` (stereo partly drawn) [4-F-GlcNAc, 2-acetamido-2-deoxy-1,3,6-tri-O-acetyl-4-deoxy-4-fluoro-D-glucopyranose], for which the “recovery of E-selectin ligand activity of Th1 cells” value in assay [1] (setting [5]) is on record as “completely inhibited”. Further, in assay [2], the “relative potency as inhibitor of HCELL activity” value is given as “more potent inhibitor of HCELL activity”. The inhibition (usually the relative decrease from the control value, in per cent) at 50 µM in assay [2] (Homo sapiens, KG-1a, KG1a neuraminidase then recovery in 0.05 mM, read-out: % Inhibition (lymphocyte binding)) worked out at 60%. Also, in assay [2] (Homo sapiens, KG-1a, KG1a neuraminidase then recovery in 0.1 mM, read-out: % Inhibition (lymphocyte binding)), the inhibition at 100 µM amounted to 78%. Besides, the inhibition at 500 µM in assay [2] (Homo sapiens, KG-1a, KG1a neuraminidase then recovery in 0.5 mM, read-out: % Inhibition (lymphocyte binding)) was determined as 94%. The “Mean Lymphocyte Binding” value turned out to be 93.6 in assay [2] (KG1a neuraminidase then recovery in 0.05 mM), 50.6 in assay [2] (KG1a neuraminidase then recovery in 0.1 mM) and 15.4 in assay [2] (KG1a neuraminidase then recovery in 0.5 mM). Moreover, in assay [3] (0.05 mM, p<0.001), the “difference in cell rolling frequency on P-selectin chimera vs PBS recovery” value is reported as “statistically significant”. Also, in assay [3] (setting [6]), the “rolling adhesions on P-selectin chimera” value was “significant reductions”. Moreover, the “CLA+ T-cell tethering and rolling mediated by P-selectin” value in assay [3] (setting [7]) was “completely abolished”. For the same compound, the “E-selectin ligand activity compared with protease treatment” value in assay [4] is recorded as “did not reduce E-selectin ligand activity below that of protease-treatment”. Also, the “difference in cell rolling frequency on E-selectin chimera vs PBS recovery” value in assay [4] (0.05 mM, p<0.001) is reported as “statistically significant”. The “rolling adhesions on E-selectin chimera” value in assay [4] (setting [6]) is given as “significant reductions”. Moreover, the “CLA+ T-cell tethering and rolling mediated by E-selectin” value in assay [4] (setting [7]) is on record as “completely abolished”.

On to `CC(=O)N[C@H]1C(O)O[C@H](CO)[C@@H](O)[C@@H]1O` (stereo partly drawn) [GlcNAc, N-acetylglucosamine], for which the “recovery of E-selectin ligand activity of Th1 cells” value in assay [1] (setting [5]) was “no effect”. For the same compound, the “recovery of P-selectin ligand activity” value in assay [3] (setting [8]) is on record as above 80 % recovery. The “recovery of E-selectin ligand activity” value in assay [4] (setting [8]) was above 80 % recovery.

In the case of `O[C@H]1[C@H]2[C@H](O)CCCN2C[C@H]1O` [swainsonine], the “recovery of E-selectin ligand activity of Th1 cells” value in assay [1] is given as “no effect”. The inhibition at 230 µM in assay [2] (Homo sapiens, KG-1a, KG1a neuraminidase then recovery in 0.23 mM, read-out: % Inhibition (lymphocyte binding)) stood at 74%. Besides, the “Mean Lymphocyte Binding” value in assay [2] (KG1a neuraminidase then recovery in 0.23 mM) worked out at 60.7. Moreover, in assay [3], the “rolling adhesions on P-selectin chimera” value is “no effect”. In assay [4], the “rolling adhesions on E-selectin chimera” value was “no effect”.

As for tunicamycin, in assay [1], the “recovery of E-selectin ligand activity of Th1 cells” value is reported as “completely inhibited”. Further, the “relative potency as inhibitor of HCELL activity” value in assay [2] is “more potent inhibitor of HCELL activity than both swainsonine and 4-F-GlcNAc”. Further, in assay [3], the “rolling adhesions on P-selectin chimera” value is given as “significant reductions”. The “rolling adhesions on E-selectin chimera” value in assay [4] is listed as “significant reductions”.

For the origin of these results see US7098195B2, “Fluorinated glucosamine analogs useful for modulating post-translational glycosylations on cells” (Health Research, Inc., priority 2001, dated 2006).
